Columns and labels:
Type in all cases: in vivo, human
[1] = tested on: patient with generalized anxiety disorder, panic disorder, and agitation; assay: Clinical case, Example 1: patient; conditions: person; fluoxetine alone 4 months, sertraline alone 6 months, alprazolam 2.0 mg/daily alone 4 months
Source text: A patient had generalized anxiety disorder, panic disorder, and agitation. […] Because azelastine is approved for the treatment of allergic rhinitis and asthma and has never been used to treat patients with depression or anxiety, this dramatic clinical outcome from this composition is unexpected. […] This way of activating the GABA system may interact more effectively with other neurotransmitter systems, including noradrenergic, serotonergic, cholinergic, and opioidergic systems. […] This composition of two mechanisms of action for two different classes of diseases provided a new solution for treating psychiatric diseases which are incurable by other options, such traditional SSRIs, NSRIs, benzodiazepines, and the like alone.

[2] = tested on: patient with major depressive disorder and agitation; assay: Clinical case, Example 3: patient; conditions: person; disorder for about 2 years; fluoxetine alone, alprazolam 2.0 mg/daily alone
Source text: (§1) The inventors believe the hypothesis as explained in example 1 above is applicable here as well. In this case, the composition of two mechanisms of action for two different classes of diseases provided a new solution for treating […] major depressive disorder and agitation which could not be treated with other options, such traditional SSRIs, NSRIs, benzodiazepines, and the like alone.

[3] = tested on: patient with generalized anxiety disorder, agitation and insomnia; assay: Clinical case, Example 2: patient; conditions: person; disorder for 8 months; alprazolam 2.0 mg/daily alone
Source text: as §1, with “generalized anxiety diseases” for “major depressive disorder”, “agitation along with insomnia” for “agitation”

CNCCC(Oc1ccc(C(F)(F)F)cc1)c1ccccc1 (stereo not drawn) [fluoxetine]
clinical improvement with single-agent treatment [1]: no significant clinical improvement
effectiveness of earlier treatment alone [2]: no treatment, including fluoxetine alone from SSRIs or alprazolam (2.0 mg/daily) alone from benzodiazepines, had been effective

Cc1nnc2n1-c1ccc(Cl)cc1C(c1ccccc1)=NC2 [alprazolam, 8-Chloro-1-methyl-6-phenyl-4H-s-triazolo(4,3-a)(1,4)benzodiazepine]
clinical improvement with single-agent treatment [1]: no significant clinical improvement
effectiveness of earlier treatment alone [2]: no treatment, including fluoxetine alone from SSRIs or alprazolam (2.0 mg/daily) alone from benzodiazepines, had been effective
effectiveness of earlier treatment alone [3]: no treatment had been effective

CN[C@H]1CC[C@@H](c2ccc(Cl)c(Cl)c2)c2ccccc21 [sertraline]
clinical improvement with single-agent treatment [1]: no significant clinical improvement

Source: patent US11938139B2, “Pharmaceutical compositions and methods for anxiety, depression and other psychiatric disorders” (LA PharmaTech Inc., priority 2019, dated 2024)
